Laboratory results published in ChEMBL document CHEMBL1201862, “PubChem BioAssay data set” (2004).
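Grown in 96-well plates, cells were treated for 48 hours with each compound at five concentrations. Insufficient inhibition: endpoint recorded as highest concentration tested. GI50 marks 50% less growth.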 Activity calls are given as the source filed them. No stated cut-off is given here; in the data, active = GI50 up to about 1.1 µM and inactive = higher.

Columns and labels:
Assay in all cases: inhibition of tumour cell growth, NCI panel, 48 h
ACHN = system: ACHN
CCRF-CEM = system: CCRF-CEM
COLO 205 = system: COLO 205
HCT-116 = system: HCT-116
HL-60 = system: HL-60
K562 = system: K562
LOX IMVI = system: LOX IMVI
Malme-3M = system: Malme-3M
NCI-H460 = system: NCI-H460
NCI-H522 = system: NCI-H522
OVCAR-3 = system: OVCAR-3
RXF 393 = system: RXF 393
SK-MEL-2 = system: SK-MEL-2
SK-MEL-5 = system: SK-MEL-5
SK-OV-3 = system: SK-OV-3
SNB-19 = system: SNB-19
SW-620 = system: SW-620
TK-10 = system: TK-10

Measured: GI50

Cc1cccc(C(C)C)c1N1C(=O)C(=O)C(c2nc3ccccc3o2)C(=O)C1=O
inactive: ACHN > 100 µM | CCRF-CEM 20.2 µM | COLO 205 41.8 µM | HCT-116 53.7 µM | HL-60 30.3 µM | K562 49 µM | LOX IMVI 41.7 µM | Malme-3M > 100 µM | NCI-H460 76.7 µM | NCI-H522 29.5 µM | OVCAR-3 32.1 µM | RXF 393 21.4 µM | SK-MEL-2 > 100 µM | SK-MEL-5 60.1 µM | SK-OV-3 > 100 µM | SNB-19 > 100 µM | SW-620 56.8 µM | TK-10 > 100 µM

Nc1nnc(N)n1N
inactive: ACHN > 100 µM | CCRF-CEM > 100 µM | COLO 205 > 100 µM | HCT-116 > 100 µM | HL-60 > 100 µM | K562 > 100 µM | LOX IMVI > 100 µM | Malme-3M > 100 µM | NCI-H460 > 100 µM | NCI-H522 > 100 µM | RXF 393 > 100 µM | SK-MEL-2 > 100 µM | SK-MEL-5 > 100 µM | SK-OV-3 > 100 µM | SNB-19 > 100 µM | SW-620 > 100 µM | TK-10 > 100 µM

N#Cc1cccc(N2C(=O)c3ccc(C(=O)c4ccc5c(c4)C(=O)N(c4cccc(C#N)c4)C5=O)cc3C2=O)c1
inactive: CCRF-CEM > 100 µM | COLO 205 > 100 µM | HCT-116 > 100 µM | HL-60 > 100 µM | K562 > 100 µM | LOX IMVI > 100 µM | Malme-3M > 100 µM | NCI-H460 > 100 µM | NCI-H522 > 100 µM | OVCAR-3 > 100 µM | RXF 393 > 100 µM | SK-MEL-2 > 100 µM | SK-MEL-5 > 100 µM | SK-OV-3 > 100 µM | SNB-19 > 100 µM | SW-620 > 100 µM | TK-10 > 100 µM

O=C(c1ccc(NCN2C(=O)CCC2=O)cc1)c1ccc(NCN2C(=O)CCC2=O)cc1
inactive: ACHN > 100 µM | CCRF-CEM > 100 µM | COLO 205 > 100 µM | HCT-116 > 100 µM | HL-60 18.9 µM | K562 67.3 µM | LOX IMVI > 100 µM | Malme-3M > 100 µM | NCI-H460 > 100 µM | NCI-H522 > 100 µM | OVCAR-3 > 100 µM | RXF 393 > 100 µM | SK-MEL-2 > 100 µM | SK-MEL-5 > 100 µM | SNB-19 > 100 µM | SW-620 58.5 µM | TK-10 > 100 µM

Brc1ccc(C[N+]23CN4CN(CN(C4)C2)C3)cc1
inactive: ACHN 44.6 µM | CCRF-CEM 20.5 µM | COLO 205 26.3 µM | HCT-116 28.1 µM | HL-60 10.4 µM | K562 25.4 µM | LOX IMVI 18.8 µM | Malme-3M 26.2 µM | NCI-H460 28.3 µM | NCI-H522 17.1 µM | OVCAR-3 73.1 µM | RXF 393 17 µM | SK-OV-3 > 100 µM | SNB-19 > 100 µM | SW-620 22.8 µM | TK-10 > 100 µM

COC(=O)CCC(NC(=S)N/N=C/c1ccccn1)C(=O)OC (configuration not stated)
inactive: ACHN > 100 µM | CCRF-CEM > 100 µM | COLO 205 > 100 µM | HCT-116 > 100 µM | HL-60 84.3 µM | K562 > 100 µM | LOX IMVI > 100 µM | Malme-3M > 100 µM | NCI-H460 > 100 µM | NCI-H522 > 100 µM | OVCAR-3 > 100 µM | RXF 393 > 100 µM | SK-MEL-2 > 100 µM | SK-MEL-5 > 100 µM | SK-OV-3 > 100 µM | SNB-19 > 100 µM | SW-620 > 100 µM | TK-10 > 100 µM

COc1cc2c(cc1O)[C@H](C)C(c1ccc(Cl)cc1)O2 (some centres not stated)
inactive: ACHN 14.1 µM | CCRF-CEM 14.5 µM | COLO 205 27.2 µM | HCT-116 16.1 µM | HL-60 14.2 µM | K562 18.3 µM | LOX IMVI 16 µM | Malme-3M 24.6 µM | NCI-H460 17.9 µM | NCI-H522 13.3 µM | OVCAR-3 37.4 µM | RXF 393 24.6 µM | SK-MEL-2 21.3 µM | SK-MEL-5 16.3 µM | SK-OV-3 23.3 µM | SNB-19 74.8 µM | SW-620 17.4 µM | TK-10 24.4 µM

CC1C[C@@H]2C(=O)NC(=O)[C@@H]2c2c1c1ccccc1n2C (some centres not stated)
inactive: CCRF-CEM 97.9 µM | COLO 205 > 100 µM | HL-60 > 100 µM | K562 > 100 µM | LOX IMVI > 100 µM | Malme-3M > 100 µM | NCI-H460 > 100 µM | NCI-H522 > 100 µM | OVCAR-3 > 100 µM | RXF 393 > 100 µM | SK-MEL-2 > 100 µM | SK-MEL-5 > 100 µM | SK-OV-3 > 100 µM | SNB-19 > 100 µM | SW-620 > 100 µM | TK-10 > 100 µM

CN1N=C2c3ccccc3CC[C@H]2C1c1ccccc1 (some centres not stated)
inactive: ACHN 44.3 µM | CCRF-CEM > 100 µM | COLO 205 35.7 µM | HCT-116 18 µM | HL-60 29.6 µM | K562 > 100 µM | LOX IMVI 47.1 µM | Malme-3M 25.5 µM | NCI-H460 28.9 µM | NCI-H522 17.6 µM | OVCAR-3 41.8 µM | RXF 393 17 µM | SK-MEL-2 24.5 µM | SK-OV-3 2.56 µM | SNB-19 69.2 µM | SW-620 78.2 µM | TK-10 > 100 µM

O=c1nc(NC(c2ccccc2)(c2ccccc2)c2ccccc2)ccn1CCO
inactive: ACHN 48.5 µM | COLO 205 > 100 µM | HCT-116 61.1 µM | HL-60 41 µM | K562 58.7 µM | LOX IMVI 75.9 µM | Malme-3M > 100 µM | NCI-H460 57 µM | NCI-H522 51.5 µM | OVCAR-3 40.2 µM | RXF 393 6.52 µM | SK-MEL-2 > 100 µM | SNB-19 > 100 µM | SW-620 > 100 µM | TK-10 > 100 µM

O=C1CC(O)(c2ccccc2)C(c2ccccc2)=C1c1ccccc1 (configuration not stated)
inactive: ACHN 38 µM | CCRF-CEM 30.1 µM | COLO 205 17.6 µM | HL-60 24.3 µM | K562 30.5 µM | LOX IMVI 38.2 µM | Malme-3M 46 µM | NCI-H460 33.2 µM | NCI-H522 17.7 µM | OVCAR-3 29.4 µM | RXF 393 28.7 µM | SK-MEL-2 25.5 µM | SK-MEL-5 39.6 µM | SK-OV-3 > 100 µM | SW-620 94.4 µM | TK-10 81.5 µM

CN1c2ccccc2N(C)C2C1N(C)c1ccccc1N2C (configuration not stated)
inactive: ACHN 40.1 µM | CCRF-CEM 2.81 µM | COLO 205 10.8 µM | HCT-116 12.7 µM | HL-60 2.29 µM | K562 3.42 µM | LOX IMVI 5.25 µM | Malme-3M 16.6 µM | NCI-H460 20.8 µM | NCI-H522 4.73 µM | OVCAR-3 8.71 µM | RXF 393 11.1 µM | SK-MEL-2 9.59 µM | SK-MEL-5 3.72 µM | SNB-19 18.8 µM | SW-620 7.85 µM | TK-10 36.9 µM
